Experimental data as given in patent US9675647B2, “Prophylactic and/or therapeutic agent for functional gastrointestinal disorders” (MEIJI CO., LTD., priority 2007, dated 2017).

Test system: distal colon longitudinal muscle (colon specimen)
Assay: Magnus method, effects of sodium propionate and sodium acetate (Example 5)
Design: species or system rat
Details: for effect on contractile force (in words) / effect on contraction frequency (in words): Example 5, 10, 30, 100 μL of 0.1 M solution
Description: Seven-week-old SD type male rats were reared and habituated for one week, then sacrificed to excise the colon. Then, about 1 cm of the longitudinal muscle of the colon was isolated from the distal colon (a portion at about 2 to 3 cm to the appendix side from the anus), and cut into two pieces in the longitudinal layer direction (hereinafter, this is also referred to as colon specimen). Each colon specimen was hung with resting tension of 1 g in a Magnus tube filled with Krebs buffer under the condition described below, and a mixed gas of 95% oxygen and 5% carbon dioxide was passed thereto. Then, the colon specimens were equilibrated for about one hour while changing the Krebs buffer every 15 minutes.
Distilled water was added to 6.92 g of NaCl, 0.35 g of KCl, 0.29 g of MgSO4.7H2O, 0.16 g of KH2PO4, 2.1 g of glucose, 0.28 g of CaCl2, and 2.1 g of NaHCO3 to obtain 1 L. • Temperature of Krebs buffer in the Magnus tube: 32° C. • Volume of Krebs buffer introduced into the Magnus tube: 10 mL. Preparation of Test Substances
These were used as test substance aqueous solutions in the assessment test described below. Meanwhile, distilled water was used as control.
The measurement of tension and observation of muscle conditions were carried out for 15 minutes. Tension measurement charts were recorded using a recorder adjusted such that a 5 cm displacement occurs per tension of 1 g on the measurement charts. The resulting measurement charts were used to observe peaks of tension associated with muscle contraction. The contraction frequency (times/minute) was calculated from the number of peaks (times) that appeared per unit time (minute), the contractile force (g) was calculated from the peak height (cm), and numerical values were used for evaluation. With the obtained results, comparisons between the groups were further assessed for significant differences by the Student's t-test.

[1] = 10 μL of 0.1 mol/L aqueous solution added to 10 mL Krebs buffer
[2] = 30 μL of 0.1 mol/L aqueous solution added to 10 mL Krebs buffer
[3] = 100 μL of 0.1 mol/L aqueous solution added to 10 mL Krebs buffer

| SMILES | CONTRACTILE FORCE [1] [g] | CONTRACTION FREQUENCY [1] [TIMES/MINUTE] | CONTRACTILE FORCE [2] [g] | CONTRACTION FREQUENCY [2] [TIMES/MINUTE] | CONTRACTILE FORCE [3] [g] | CONTRACTION FREQUENCY [3] [TIMES/MINUTE] | effect on contractile force (in words) | effect on contraction frequency (in words) |
| --- | --- | --- | --- | --- | --- | --- | --- | --- |
| CCC(=O)[O-].[Na+] [SODIUM PROPIONATE, sodium propionate] | 1.15 ± 0.72 | 0.47 ± 0.14 | 1.24 ± 0.77 | 0.73 ± 0.19 | 1.20 ± 0.68 | 0.73 ± 0.38 | neither a contractile force-increasing effect nor a contractile force-suppressing effect | neither a contraction frequency-enhancing effect nor a contraction frequency-suppressing effect |
| CC(=O)[O-].[Na+] [SODIUM ACETATE, sodium acetate] | – | – | – | – | – | – | neither a contractile force-increasing effect nor a contractile force-suppressing effect | neither a contraction frequency-enhancing effect nor a contraction frequency-suppressing effect |
